Peptide text beside a SMILES is read from it.
Assay: Thermal sterilization of 200 g/l alanyl-glutamine solution; degradation products determined after sterilization
Type: physicochemical
Conditions: sterilization at 121° C., 124° C. and 127° C., pH 5 to 6, constant F0 12-12.5
Experimental: The sterilization temperature is in this connection preferably ≧124° C. and particularly preferably ≧127° C. The pH is preferably between 5 and 6.5. It is possible to reduce the holding times for the thermal sterilization on use of higher temperatures. Under the preferred conditions, distinctly smaller amounts of degradation products are found in the sterilized product (example 3).
A solution of 200 g/l alanyl-glutamine was sterilized at temperatures of 121° C., 124° C. and 127° C. The pH was varied between pH 5, pH 5.5 and pH 6. […] The F0 value describes the sterilization efficiency and corresponds to the holding time at 121.11° C. For sterilization at higher temperatures, the holding times were reduced to maintain a constant F0 value. After the sterilization, the amounts of the degradation products of the dipeptide alanyl-glutamine, cyclo-alanyl-glutamine and L-pyro-alanyl-glutamine were determined. Lower values for these degradation products are a direct indication of the stability of the dipeptide during the sterilization.

- values for the degradation products (stability of the dipeptide during sterilization): fell at higher temperature
SMILES: C[C@H](N)C(=O)N[C@@H](CCC(N)=O)C(=O)O [alanyl-glutamine, L-Alanyl-L-glutamine] (H-Ala-Gln-OH)
